Data reported in patent US20180193490A1, “Beta Amyloid Staging” (GE HEALTHCARE LIMITED, priority 2015, published 2018).

Target: T1, beta amyloid (Aβ) plaques in the brain (Homo sapiens, UniProt P05067)
T1 construct: from tissue; host or cells: brain of living subjects (cortex and striatum), in vivo PET
Assay: Provisional SUVR analysis of GE067-026 PET images (Cortex ID, cortex and striatal VOIs)
Type: in vivo
Conditions: for Cases C+S+ by SUVR analysis of cortical and striatal beta amyloid uptake / Cases C+S− by SUVR analysis of cortical and striatal beta amyloid uptake / Cases C−S+ by SUVR analysis of cortical and striatal beta amyloid uptake / Cases C−S− by SUVR analysis of cortical and striatal beta amyloid uptake: SUVRpons thresholds
Procedure: Some work has been performed to assess the quantitative SUVR measures from the GE067-026 cohort.
In an automated SUVR assessment methodology using GE software Cortex ID (J Lilja) PET images were quantitated using separate cortex and striatal VOIs. The SUVRs were determined for the cortical and striatal values using 3 different reference regions; whole cerebellum, cerebellar grey and pons.
Thresholding was determined by multiple methods to identify which method provided the greatest accuracy (See Setting SUVR thresholds)
The thresholds determined by ROC analysis for Phase 3 or above being abnormal gave the best sensitivity and specificity for cortical assessments. A similar approach gave the best sensitivity and specificity for the striatal assessments. Using the whole cerebellum as a reference region or pons as the reference region gave the best sensitivity and specificity (see Table 4).
Combining these thresholds to determine cortical and striatal positivity based upon SUVRpons values gave similar results to those see by BIE assessment. Of 5 C+S− cases 3 […] were Thal phase 3.
SUVR thresholds were set using two methods. • (1) Statistical determination • (2) Receiver operator characteristics
For statically determined thresholds the algorithm depicted in FIG. 1 was applied. Briefly, all cases were identified as negative or positive based on histopathology. For the cortex this was based on the GE067-026 standard of truth^2—abnormal or normal based on any regional Bielschowsky score>1.5=abnormal and all regional scores≤1.5=normal. For the striatum this was based on the identification of “Frequent” plaques by amyloid-β IHC (4G8). The threshold determinations are calculated in the file Cortex ID SUVR thresholds.xlsx. ^2 For the GE067-007 and -026 autopsy trials the primary endpoint was Bielschowsky silver stain (BSS) scores of CERAD based neuritic plaque density. 0=none, 1=sparse, 2=moderate and 3=frequent. Multiple measures were averaged and the arithmetic mean between none/sparse (normal) and moderate/frequent (abnormal=1.5. Any case with a regional BSS score>1.5 was deemed abnormal.
The SUVR means and standard deviations were calculated for normal and abnormal subjects for each of the SUVR measures; Cortex and striatum and for each of the SUVR reference regions. The threshold was determined to be the SUVR value at which the fractional standard deviation is equal between the two population means i.e. when the normal mean plus y times the normal SD is equal to the abnormal mean minus y times the abnormal SD.
A statistically based threshold was determined for abnormal and normal cases (based on histopathology) and applied to cortical and striatal SUVRs separately.
A variant of the above threshold was determined based upon the Thal phases. Thus the threshold for the cortex and striatum was determined between phase 0 and 1, between phase 1 and phase 2 . . . etc. This gave 15 threshold values (5 to discriminate each phase and 1 for each of the 3 reference regions; 15 in total)
This is an empirically determined threshold that by definition identifies the threshold that gives the best sensitivity and specificity.
Receiver operator characteristics analysis determines the sensitivity and specificity given a variable threshold. The most appropriate threshold is then determined by the maximum of the sum of the sensitivity and specificity.

T1 sequence (P05067 672-713 limits assumed): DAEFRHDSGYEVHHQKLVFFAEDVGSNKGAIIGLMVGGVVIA

CNc1ccc(-c2nc3ccc(O)cc3s2)cc1F [Flutemetamol]
Cases C+S+ by SUVR analysis of cortical and striatal beta amyloid uptake (Amyloid Thal phase 0): 0
Cases C+S− by SUVR analysis of cortical and striatal beta amyloid uptake (Amyloid Thal phase 0): 0
Cases C−S+ by SUVR analysis of cortical and striatal beta amyloid uptake (Amyloid Thal phase 0): 0
Cases C−S− by SUVR analysis of cortical and striatal beta amyloid uptake (Amyloid Thal phase 0): 7
Cases C+S+ by SUVR analysis of cortical and striatal beta amyloid uptake (Amyloid Thal phase 1): 0
Cases C+S− by SUVR analysis of cortical and striatal beta amyloid uptake (Amyloid Thal phase 1): 0
Cases C−S+ by SUVR analysis of cortical and striatal beta amyloid uptake (Amyloid Thal phase 1): 0
Cases C−S− by SUVR analysis of cortical and striatal beta amyloid uptake (Amyloid Thal phase 1): 8
Cases C+S+ by SUVR analysis of cortical and striatal beta amyloid uptake (Amyloid Thal phase 2): 0
Cases C+S− by SUVR analysis of cortical and striatal beta amyloid uptake (Amyloid Thal phase 2): 0
Cases C−S+ by SUVR analysis of cortical and striatal beta amyloid uptake (Amyloid Thal phase 2): 0
Cases C−S− by SUVR analysis of cortical and striatal beta amyloid uptake (Amyloid Thal phase 2): 5
Cases C+S+ by SUVR analysis of cortical and striatal beta amyloid uptake (Amyloid Thal phase 3): 1
Cases C+S− by SUVR analysis of cortical and striatal beta amyloid uptake (Amyloid Thal phase 3): 3
Cases C−S+ by SUVR analysis of cortical and striatal beta amyloid uptake (Amyloid Thal phase 3): 0
Cases C−S− by SUVR analysis of cortical and striatal beta amyloid uptake (Amyloid Thal phase 3): 8
Cases C+S+ by SUVR analysis of cortical and striatal beta amyloid uptake (Amyloid Thal phase 4): 16
Cases C+S− by SUVR analysis of cortical and striatal beta amyloid uptake (Amyloid Thal phase 4): 1
Cases C−S+ by SUVR analysis of cortical and striatal beta amyloid uptake (Amyloid Thal phase 4): 2
Cases C−S− by SUVR analysis of cortical and striatal beta amyloid uptake (Amyloid Thal phase 4): 3
Cases C+S+ by SUVR analysis of cortical and striatal beta amyloid uptake (Amyloid Thal phase 5): 44
Cases C+S− by SUVR analysis of cortical and striatal beta amyloid uptake (Amyloid Thal phase 5): 1
Cases C−S+ by SUVR analysis of cortical and striatal beta amyloid uptake (Amyloid Thal phase 5): 0
Cases C−S− by SUVR analysis of cortical and striatal beta amyloid uptake (Amyloid Thal phase 5): 1
Sum of sensitivity and specificity (Average over all thresholds, reference region Cer): 163%
Sum of sensitivity and specificity (Average over all thresholds, reference region Pons): 168%
Sum of sensitivity and specificity (Average over all thresholds, reference region Wcer): 168%
Phase 3 cases identified as C+S− between the two methods (BIE and SUVR) (BIE and SUVR combined): 6
Sum of sensitivity and specificity (CTX BSS ROC abnormality threshold, Average of reference regions): 177%
Sum of sensitivity and specificity (CTX BSS ROC abnormality threshold, reference region Cer): 176%
Sum of sensitivity and specificity (CTX BSS ROC abnormality threshold, reference region Pons): 174%
Sum of sensitivity and specificity (CTX BSS ROC abnormality threshold, reference region Wcer): 180%
Sum of sensitivity and specificity (CTX Max Mirra ROC abnormality threshold, Average of reference regions): 170%
Sum of sensitivity and specificity (CTX Max Mirra ROC abnormality threshold, reference region Cer): 170%
Sum of sensitivity and specificity (CTX Max Mirra ROC abnormality threshold, reference region Pons): 167%
Sum of sensitivity and specificity (CTX Max Mirra ROC abnormality threshold, reference region Wcer): 173%
Sum of sensitivity and specificity (CTX Mirra mode ROC abnormality threshold, Average of reference regions): 172%
Sum of sensitivity and specificity (CTX Mirra mode ROC abnormality threshold, reference region Cer): 170%
Sum of sensitivity and specificity (CTX Mirra mode ROC abnormality threshold, reference region Pons): 173%
Sum of sensitivity and specificity (CTX Mirra mode ROC abnormality threshold, reference region Wcer): 174%
Sum of sensitivity and specificity (CTX Phase1 threshold, Average of reference regions): 139%
Sum of sensitivity and specificity (CTX Phase1 threshold, reference region Cer): 142%
Sum of sensitivity and specificity (CTX Phase1 threshold, reference region Pons): 129%
Sum of sensitivity and specificity (CTX Phase1 threshold, reference region Wcer): 145%
Sum of sensitivity and specificity (CTX Phase2 threshold, Average of reference regions): 155%
Sum of sensitivity and specificity (CTX Phase2 threshold, reference region Cer): 153%
Sum of sensitivity and specificity (CTX Phase2 threshold, reference region Pons): 158%
Sum of sensitivity and specificity (CTX Phase2 threshold, reference region Wcer): 152%
Sum of sensitivity and specificity (CTX Phase 3 + ROC abnormality threshold, Average of reference regions): 183%
Sum of sensitivity and specificity (CTX Phase 3 + ROC abnormality threshold, reference region Cer): 180%
Sum of sensitivity and specificity (CTX Phase 3 + ROC abnormality threshold, reference region Pons): 186%
Sum of sensitivity and specificity (CTX Phase 3 + ROC abnormality threshold, reference region Wcer): 182%
Sum of sensitivity and specificity (CTX Phase3 threshold, Average of reference regions): 161%
Sum of sensitivity and specificity (CTX Phase3 threshold, reference region Cer): 153%
Sum of sensitivity and specificity (CTX Phase3 threshold, reference region Pons): 166%
Sum of sensitivity and specificity (CTX Phase3 threshold, reference region Wcer): 166%
Sum of sensitivity and specificity (CTX Phase 4 + ROC abnormality threshold, Average of reference regions): 179%
Sum of sensitivity and specificity (CTX Phase 4 + ROC abnormality threshold, reference region Cer): 176%
Sum of sensitivity and specificity (CTX Phase 4 + ROC abnormality threshold, reference region Pons): 182%
Sum of sensitivity and specificity (CTX Phase 4 + ROC abnormality threshold, reference region Wcer): 180%
Sum of sensitivity and specificity (CTX Phase4 threshold, Average of reference regions): 177%
Sum of sensitivity and specificity (CTX Phase4 threshold, reference region Cer): 173%
Sum of sensitivity and specificity (CTX Phase4 threshold, reference region Pons): 179%
Sum of sensitivity and specificity (CTX Phase4 threshold, reference region Wcer): 179%
Sum of sensitivity and specificity (CTX Phase5 threshold, Average of reference regions): 136%
Sum of sensitivity and specificity (CTX Phase5 threshold, reference region Cer): 132%
Sum of sensitivity and specificity (CTX Phase5 threshold, reference region Pons): 142%
Sum of sensitivity and specificity (CTX Phase5 threshold, reference region Wcer): 133%
Sum of sensitivity and specificity (CTX abnormality statistical threshold, Average of reference regions): 176%
Sum of sensitivity and specificity (CTX abnormality statistical threshold, reference region Cer): 174%
Sum of sensitivity and specificity (CTX abnormality statistical threshold, reference region Pons): 175%
Sum of sensitivity and specificity (CTX abnormality statistical threshold, reference region Wcer): 180%
Sum of sensitivity and specificity (STR Phase1 threshold, Average of reference regions): 144%
Sum of sensitivity and specificity (STR Phase1 threshold, reference region Cer): 135%
Sum of sensitivity and specificity (STR Phase1 threshold, reference region Pons): 147%
Sum of sensitivity and specificity (STR Phase1 threshold, reference region Wcer): 150%
Sum of sensitivity and specificity (STR Phase2 threshold, Average of reference regions): 138%
Sum of sensitivity and specificity (STR Phase2 threshold, reference region Cer): 135%
Sum of sensitivity and specificity (STR Phase2 threshold, reference region Pons): 135%
Sum of sensitivity and specificity (STR Phase2 threshold, reference region Wcer): 144%
Sum of sensitivity and specificity (STR Phase3 threshold, Average of reference regions): 173%
Sum of sensitivity and specificity (STR Phase3 threshold, reference region Cer): 164%
Sum of sensitivity and specificity (STR Phase3 threshold, reference region Pons): 178%
Sum of sensitivity and specificity (STR Phase3 threshold, reference region Wcer): 179%
Sum of sensitivity and specificity (STR Phase4 threshold, Average of reference regions): 183%
Sum of sensitivity and specificity (STR Phase4 threshold, reference region Cer): 180%
Sum of sensitivity and specificity (STR Phase4 threshold, reference region Pons): 186%
Sum of sensitivity and specificity (STR Phase4 threshold, reference region Wcer): 183%
Sum of sensitivity and specificity (STR Phase5 threshold, Average of reference regions): 158%
Sum of sensitivity and specificity (STR Phase5 threshold, reference region Cer): 151%
Sum of sensitivity and specificity (STR Phase5 threshold, reference region Pons): 165%
Sum of sensitivity and specificity (STR Phase5 threshold, reference region Wcer): 157%
Sum of sensitivity and specificity (STR ROC abnormality threshold, Average of reference regions): 187%
Sum of sensitivity and specificity (STR ROC abnormality threshold, reference region Cer): 185%
Sum of sensitivity and specificity (STR ROC abnormality threshold, reference region Pons): 188%
Sum of sensitivity and specificity (STR ROC abnormality threshold, reference region Wcer): 187%
Sum of sensitivity and specificity (STR abnormality statistical threshold, Average of reference regions): 184%
Sum of sensitivity and specificity (STR abnormality statistical threshold, reference region Cer): 182%
Sum of sensitivity and specificity (STR abnormality statistical threshold, reference region Pons): 187%
Sum of sensitivity and specificity (STR abnormality statistical threshold, reference region Wcer): 185%
Share of C+S− cases that were Thal phase 3 (SUVRpons values): 66%
C+S− cases by SUVR thresholds (SUVRpons values, all Thal phases): 5
Thal phase 3 C+S− cases by SUVR analysis in common with those identified by BIE assessment (of the 3 Thal phase 3 C+S− cases by SUVR): two
